Assay results published in PubChem BioAssay (NCI).
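Grown in 96-well plates, cells were treated for 48 hours with each compound at five concentrations. Insufficient inhibition: endpoint recorded as highest concentration tested. GI50: concentration for 50% inhibition of growth. TGI marks complete inhibition of growth.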

What was measured:
Assay in all cases: NCI anticancer screen, dose series, 48 h
A498 renal = test system: A498 renal
UACC-257 melanoma = test system: UACC-257 melanoma
TK-10 renal = test system: TK-10 renal
SR leukemia = test system: SR leukemia
A549 NSCLC = test system: A549 NSCLC
HOP-92 NSCLC = test system: HOP-92 NSCLC
SNB-19 CNS = test system: SNB-19 CNS
HL-60(TB) leukemia = test system: HL-60(TB) leukemia
SNB-75 CNS = test system: SNB-75 CNS
SF-295 CNS = test system: SF-295 CNS
IGROV1 ovarian = test system: IGROV1 ovarian
KM12 colon = test system: KM12 colon
SN12C renal = test system: SN12C renal
HS 578T breast = test system: HS 578T breast
SW-620 colon = test system: SW-620 colon
NCI/ADR-RES ovarian = test system: NCI/ADR-RES ovarian
M14 melanoma = test system: M14 melanoma
BT-549 breast = test system: BT-549 breast
OVCAR-5 ovarian = test system: OVCAR-5 ovarian
HOP-62 NSCLC = test system: HOP-62 NSCLC
COLO 205 colon = test system: COLO 205 colon
SK-MEL-2 melanoma = test system: SK-MEL-2 melanoma
EKVX NSCLC = test system: EKVX NSCLC
OVCAR-8 ovarian = test system: OVCAR-8 ovarian
PC-3 prostate = test system: PC-3 prostate
SF-539 CNS = test system: SF-539 CNS
NCI-H226 lung = test system: NCI-H226 lung
786-0 renal = test system: 786-0 renal
SK-MEL-28 melanoma = test system: SK-MEL-28 melanoma
NCI-H23 lung = test system: NCI-H23 lung
MALME-3M melanoma = test system: MALME-3M melanoma
K-562 leukemia = test system: K-562 leukemia
SK-MEL-5 melanoma = test system: SK-MEL-5 melanoma
OVCAR-4 ovarian = test system: OVCAR-4 ovarian
HCT-15 colon = test system: HCT-15 colon
MDA-MB-435 = test system: MDA-MB-435
MOLT-4 leukemia = test system: MOLT-4 leukemia
HCT-116 colon = test system: HCT-116 colon
UO-31 renal = test system: UO-31 renal
SK-OV-3 ovarian = test system: SK-OV-3 ovarian
UACC-62 melanoma = test system: UACC-62 melanoma
U251 CNS = test system: U251 CNS
HCC-2998 colon = test system: HCC-2998 colon
NCI-H522 lung = test system: NCI-H522 lung
NCI-H460 lung = test system: NCI-H460 lung
OVCAR-3 ovarian = test system: OVCAR-3 ovarian
DU-145 prostate = test system: DU-145 prostate
CAKI-1 renal = test system: CAKI-1 renal
LOX IMVI melanoma = test system: LOX IMVI melanoma
RPMI-8226 leukemia = test system: RPMI-8226 leukemia
MDA-MB-231 breast = test system: MDA-MB-231 breast
SF-268 CNS = test system: SF-268 CNS
MCF7 breast = test system: MCF7 breast
T-47D breast = test system: T-47D breast
ACHN renal = test system: ACHN renal
RXF 393 renal = test system: RXF 393 renal
CCRF-CEM leukemia = test system: CCRF-CEM leukemia

Cn1cc(-c2nc(-c3c[nH]c4ncccc34)cs2)c2cc(Cl)ccc21
GI50 (A498 renal): 2.61 µM
TGI (A498 renal): 12.9 µM
GI50 (UACC-257 melanoma): 3.26 µM
TGI (UACC-257 melanoma): 16.5 µM
GI50 (TK-10 renal): 5.78 µM
TGI (TK-10 renal): > 100 µM
GI50 (SR leukemia): 6.92 µM
TGI (SR leukemia): > 100 µM
GI50 (A549 NSCLC): 3.94 µM
TGI (A549 NSCLC): > 100 µM
GI50 (HOP-92 NSCLC): 2.93 µM
TGI (HOP-92 NSCLC): 18.4 µM
GI50 (SNB-19 CNS): 6.61 µM
TGI (SNB-19 CNS): > 100 µM
GI50 (HL-60(TB) leukemia): 5.93 µM
TGI (HL-60(TB) leukemia): > 100 µM
GI50 (SNB-75 CNS): 3.52 µM
TGI (SNB-75 CNS): > 100 µM
GI50 (SF-295 CNS): 2.35 µM
TGI (SF-295 CNS): 8.75 µM
GI50 (IGROV1 ovarian): 4.54 µM
TGI (IGROV1 ovarian): > 100 µM
GI50 (KM12 colon): 2.26 µM
TGI (KM12 colon): 7.47 µM
GI50 (SN12C renal): 4.72 µM
TGI (SN12C renal): 94.2 µM
GI50 (HS 578T breast): 4.18 µM
TGI (HS 578T breast): 32.7 µM
GI50 (SW-620 colon): 5.3 µM
TGI (SW-620 colon): > 100 µM
GI50 (NCI/ADR-RES ovarian): 3.94 µM
TGI (NCI/ADR-RES ovarian): > 100 µM
GI50 (M14 melanoma): 4.85 µM
TGI (M14 melanoma): 40.7 µM
GI50 (BT-549 breast): 27.3 µM
TGI (BT-549 breast): > 100 µM
GI50 (OVCAR-5 ovarian): 1.61 µM
TGI (OVCAR-5 ovarian): > 100 µM
GI50 (HOP-62 NSCLC): 25.3 µM
TGI (HOP-62 NSCLC): > 100 µM
GI50 (COLO 205 colon): 3.74 µM
TGI (COLO 205 colon): 14.6 µM
GI50 (SK-MEL-2 melanoma): 13.3 µM
TGI (SK-MEL-2 melanoma): > 100 µM
GI50 (EKVX NSCLC): 0.678 µM
TGI (EKVX NSCLC): > 100 µM
GI50 (OVCAR-8 ovarian): 6.04 µM
TGI (OVCAR-8 ovarian): > 100 µM
GI50 (PC-3 prostate): 3.62 µM
TGI (PC-3 prostate): > 100 µM
GI50 (SF-539 CNS): 12.1 µM
TGI (SF-539 CNS): > 100 µM
GI50 (NCI-H226 lung): 11.9 µM
TGI (NCI-H226 lung): > 100 µM
GI50 (786-0 renal): 4.62 µM
TGI (786-0 renal): > 100 µM
GI50 (SK-MEL-28 melanoma): 7.43 µM
TGI (SK-MEL-28 melanoma): > 100 µM
GI50 (NCI-H23 lung): 5.01 µM
TGI (NCI-H23 lung): > 100 µM
GI50 (MALME-3M melanoma): 12.5 µM
TGI (MALME-3M melanoma): 56.7 µM
GI50 (K-562 leukemia): 2.76 µM
TGI (K-562 leukemia): 15.2 µM
GI50 (SK-MEL-5 melanoma): 7.48 µM
TGI (SK-MEL-5 melanoma): > 100 µM
GI50 (OVCAR-4 ovarian): 0.37 µM
TGI (OVCAR-4 ovarian): > 100 µM
GI50 (HCT-15 colon): 2.34 µM
TGI (HCT-15 colon): > 100 µM
GI50 (MDA-MB-435): 3.47 µM
TGI (MDA-MB-435): > 100 µM
GI50 (MOLT-4 leukemia): 4.27 µM
TGI (MOLT-4 leukemia): > 100 µM
GI50 (HCT-116 colon): 4.34 µM
TGI (HCT-116 colon): > 100 µM
GI50 (UO-31 renal): 2.81 µM
TGI (UO-31 renal): 75.5 µM
GI50 (SK-OV-3 ovarian): 16.1 µM
TGI (SK-OV-3 ovarian): > 100 µM
GI50 (UACC-62 melanoma): 8.8 µM
TGI (UACC-62 melanoma): > 100 µM
GI50 (U251 CNS): 3.85 µM
TGI (U251 CNS): 30.8 µM
GI50 (HCC-2998 colon): 3.47 µM
TGI (HCC-2998 colon): 28.3 µM
GI50 (NCI-H522 lung): 5.56 µM
TGI (NCI-H522 lung): > 100 µM
GI50 (NCI-H460 lung): 3.2 µM
TGI (NCI-H460 lung): > 100 µM
GI50 (OVCAR-3 ovarian): 7.47 µM
TGI (OVCAR-3 ovarian): 29.7 µM
GI50 (DU-145 prostate): 5.67 µM
TGI (DU-145 prostate): > 100 µM
GI50 (CAKI-1 renal): 2.65 µM
TGI (CAKI-1 renal): 9.22 µM
GI50 (LOX IMVI melanoma): 3.61 µM
TGI (LOX IMVI melanoma): > 100 µM
GI50 (RPMI-8226 leukemia): 4.87 µM
TGI (RPMI-8226 leukemia): > 100 µM
GI50 (MDA-MB-231 breast): 2.65 µM
TGI (MDA-MB-231 breast): 54.1 µM
GI50 (SF-268 CNS): 5.28 µM
TGI (SF-268 CNS): > 100 µM
GI50 (MCF7 breast): 1.16 µM
TGI (MCF7 breast): > 100 µM
GI50 (T-47D breast): 0.0913 µM
TGI (T-47D breast): 23.6 µM
GI50 (ACHN renal): 3.6 µM
TGI (ACHN renal): > 100 µM
GI50 (RXF 393 renal): 4.63 µM
TGI (RXF 393 renal): > 100 µM
GI50 (CCRF-CEM leukemia): 5.51 µM
TGI (CCRF-CEM leukemia): > 100 µM
